The experiment deals with GzmB (Homo sapiens, UniProt P10144). The experiment can be described thus: Inhibition of fibronectin cleavage by GzmB. The class given is biochemical. To be noted: 20 nM granzyme B, 30° C.; for inhibition at 0.62 µM: 0.62 uM inhibitor, read-out: Percent Inhibition at Inhibitor Concentration 0.62 uM; for inhibition at 5.56 µM: 5.56 uM inhibitor, read-out: Percent Inhibition at Inhibitor Concentration 5.56 uM; for inhibition at 50 µM: 50 uM inhibitor, read-out: Percent Inhibition at Inhibitor Concentration 50 uM. The protocol:
Black, 96 well high-binding assay plates (Griener Bio-one) were treated overnight at 4° C. with 40 uL of 8 ug/mL Hilyte Fluor 488 labeled Fibronectin (Cytoskeleton, Inc). After fibronectin coating, plates were washed 3 times in buffer (20 mM Tris-HCl, pH 7.4, 20 mM NaCl) then once with granzyme B assay buffer (50 mM HEPES, pH 7.5, 0.1% CHAPS). After washing, 50 uL of granzyme B assay buffer was added to each fibronectin-coated well. In a separate non-binding 96 well assay plate 5 uL of 20× inhibitor serial dilution stocks were added to 45 uL of 2.22×GzmB mix to establish inhibition (enzyme/inhibitor mixes were all prepared in granzyme B assay buffer and were incubated first at room temperature for 20 minutes, then at 30° C. for another 10 minutes). After incubation, 50 uL of this 2× enzyme/inhibitor mix was added to the corresponding coated well to initiate fibronectin cleavage (20 nM final granzyme B concentration, 8-point inhibitor dilution series starting at 50 uM). The assay was conducted at 30° C. in the TECAN plate reader (TECAN INFINITE® M1000 Pro), which was programmed to monitor the kinetic fluorescence polarization signal (filter set Ex/Em 470 nm/527 nm) with readings taken every minute, for 1 hour. Proteolytic activity was evaluated as the rate of fluorescence enhancement in the parallel emission over the linear range of the reaction. % Inhibition values were calculated from assay controls and the resulting date is shown in Table 6.

The record followed here is US9969770B2, “Proline compounds as Granzyme B inhibitors” (viDA Therapeutics Inc., priority 2014, dated 2018).

The structures appear in SMILES notation.

GzmB, sequence (P10144 21-247): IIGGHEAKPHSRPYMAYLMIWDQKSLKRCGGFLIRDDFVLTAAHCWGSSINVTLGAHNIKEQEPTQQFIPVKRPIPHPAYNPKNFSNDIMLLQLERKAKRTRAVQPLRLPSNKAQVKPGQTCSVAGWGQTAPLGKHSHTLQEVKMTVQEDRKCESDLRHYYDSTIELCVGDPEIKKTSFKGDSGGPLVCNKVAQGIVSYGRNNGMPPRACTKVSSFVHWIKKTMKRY

`CC[C@H](C)[C@H](NC(=O)Cc1ccccc1)C(=O)NCC(=O)N1C[C@H](C2CCCCC2)C[C@H]1C(=O)NCc1nn[nH]n1` [Compound C2, (2S,4S)—N-((2H-tetrazol-5-yl)methyl)-4-cyclohexyl-1-(2-((2S,3S)-3-methyl-2-(2-phenylacetamido)pentanamido)acetyl)pyrrolidine-2-carboxamide]: the inhibition at 0.62 µM was determined as 40%, the inhibition at 5.56 µM turned out to be 76% and the inhibition at 50 µM was 84%.

Regarding `CC[C@H](C)[C@H](NC(=O)CCC(=O)O)C(=O)NCC(=O)N1C[C@H](Sc2ccccc2)C[C@H]1C(=O)NCc1nn[nH]n1` [Compound C13, 4-(((2S,3S)-1-((2-((2S,4R)-2-(((2H-tetrazol-5-yl)methyl)carbamoyl)-4-(phenylthio)pyrrolidin-1-yl)-2-oxoethyl)amino)-3-methyl-1-oxopentan-2-yl)amino)-4-oxobutanoic acid], the inhibition at 0.62 µM amounted to 28%, the inhibition at 5.56 µM is 58% and the inhibition at 50 µM was found to be 81%.

For the compound `O=C(O)CCC(=O)N[C@H](C(=O)NCC(=O)N1C[C@H](C2CCCCC2)C[C@H]1C(=O)NCc1nn[nH]n1)C1CCCC1` [Compound C5, 4-(((S)-2-((2-((2S,4S)-2-(((2H-tetrazol-5-yl)methyl)carbamoyl)-4-cyclohexylpyrrolidin-1-yl)-2-oxoethyl)amino)-1-cyclopentyl-2-oxoethyl)amino)-4-oxobutanoic acid], the inhibition at 0.62 µM was found to be 35%, the inhibition at 5.56 µM stood at 70% and the inhibition at 50 µM was 86%.
